Measured values reported in patent US8877707B2, “Inhibitors of HCV NS5A” (Presidio Pharmaceuticals, Inc., priority 2010, dated 2014).
Like-named read-outs stand apart in the source and are kept apart here.

System: HCV genotype 1b replicon in Huh 7 cells
Assay: HCV replicon assay (1b_Huh-Luc/Neo-ET cell line, luciferase readout)
Assay type: cell-based
Conditions: Hepatitis C virus, read-out: Inhibition of HCV genotype 1b
Summary of the method: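 Replicon level was read as luciferase signal after 72 h compound exposure, triplicate wells, starting the day after cells were plated. Cell line: 1b_Huh-Luc/Neo-ET. Values normalised to control as percent, and EC50 fitted with a variable-slope sigmoid; determinations repeated.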

[1] = Table 1, genotype 1b replicon, Huh 7 cells, 72 h, luciferase
[2] = Table 2, genotype 1b replicon, Huh 7 cells, 72 h, luciferase

In the case of `COC(=O)N[C@H](C(=O)N1CCC[C@H]1CNC(=O)c1cnc2cc(-c3ccc4c(c3)CCc3nc([C@@H]5CCCN5C(=O)[C@@H](NC(=O)OC)C(C)C)[nH]c3-4)ccc2c1)C(C)C` [compound 549], the EC50 (Huh-7, HCV 1b replicon) is reported as 1 to 9.9 nM.

Molecule `COC(=O)N[C@H](C(=O)N1CCC[C@H]1c1nc(-c2ccc3nc(-c4ccc(-c5cnc([C@@H]6CCCN6C(=O)[C@@H](NC(=O)OC)C(C)C)[nH]5)cc4)ncc3c2)c[nH]1)C(C)C` [compound 17] has an EC50 [1] of less than 1 nM.

For `COC(=O)N[C@H](C(=O)N1CCC[C@H]1c1ncc(-c2ccc3cc(-c4ccc(-c5cnc([C@@H]6CCCN6C(=O)[C@H](NC(=O)OC)c6ccccc6)[nH]5)cn4)ccc3c2)[nH]1)C1CCOCC1` [compound 337], the EC50 [2] was less than 1 nM.

Work on `COC(=O)N[C@H](C(=O)N1CCC[C@H]1c1ncc(-c2ccc3cc(-c4ccc(-c5cnc([C@@H]6CCCN6C(=O)[C@H](NC(=O)OC)c6ccccc6)[nH]5)nn4)ccc3c2)[nH]1)[C@@H](C)OC` [compound 500] yielded an EC50 (Huh-7, HCV 1b replicon) of less than 1 nM.

`COC(=O)N[C@H](C(=O)N1CCC[C@H]1c1nc(-c2cnc3cc(-c4ccc(-c5cnc([C@@H]6CCCN6C(=O)[C@@H](NC(=O)OC)C6CCOCC6)[nH]5)cn4)ccc3c2)c[nH]1)C1CCOCC1` [compound 75] showed an EC50 [1] of less than 1 nM.

With `COC(=O)N[C@H](C(=O)N1CCC[C@H]1c1nc2ccc(-c3ccc4cc(-c5cnc([C@@H]6CCCN6C(=O)[C@H](NC(=O)OC)c6ccccc6)[nH]5)ccc4c3)cc2[nH]1)C1CCOCC1` [compound 212] the EC50 [1] was less than 1 nM.

Molecule `COC(=O)N[C@H](C(=O)N1CCC[C@H]1c1ncc(-c2ccc(-c3ccc4nc(-c5c[nH]c([C@@H]6CCCN6C(=O)[C@H](NC(=O)OC)c6ccccc6)n5)ccc4c3)cc2)[nH]1)C(C)C` [compound 103] has an EC50 [1] of less than 1 nM.

Work on `COC(=O)N[C@H](C(=O)N1CCC[C@H]1c1ncc(-c2ccc(-c3nc4ccc(-c5cnc([C@@H]6CCCN6C(=O)[C@@H](NC(=O)OC)C(C)C)[nH]5)cc4s3)cc2)[nH]1)C(C)C` [compound 229] yielded an EC50 [1] of less than 1 nM.

Molecule `COC(=O)N[C@H](C(=O)N1CCC[C@H]1c1ncc(-c2ccc3cc(-c4ccc(-c5cnc([C@@H]6CCCN6C(=O)[C@H](NC(=O)OC6CCOCC6)c6ccccc6)[nH]5)cc4)ncc3c2)[nH]1)C1CCOCC1` [compound 117] has an EC50 [1] of less than 1 nM.

`COC(=O)N[C@@H](C(=O)N1CCC[C@H]1CNC(=O)c1ccc2cc(-c3ccc(-c4cnc([C@@H]5CCCN5C(=O)[C@H](NC(=O)OC)c5ccccc5)[nH]4)cc3)ccc2c1)c1ccccc1` [compound 577] was tested, and the EC50 (Huh-7, HCV 1b replicon) was less than 1 nM.

`COC[C@H](NC(=O)OC)C(=O)N1CCC[C@H]1c1ncc(-c2ccc(-c3ccc4cc(-c5cnc([C@@H]6CCCN6C(=O)[C@H](COC)NC(=O)OC)[nH]5)ccc4c3)cc2)[nH]1` [compound 463] gave an EC50 (Huh-7, HCV 1b replicon) of less than 1 nM.

Molecule `COC(=O)N[C@H](C(=O)N1CCC[C@H]1c1ncc(-c2ccc3cc(-c4ccc(-c5cnc([C@@H]6COCCN6C(=O)[C@H](NC(=O)OC)c6ccccc6)[nH]5)cc4)ccc3c2)[nH]1)C1CCOCC1` [compound 169] has an EC50 [1] of less than 1 nM.

`COC(=O)N[C@H](C(=O)N1CCC[C@H]1c1ncc(-c2ccc3cc(-c4ccc5nc([C@@H]6CCCN6C(=O)[C@@H](c6ccccc6)N(C)C)[nH]c5c4)ccc3c2)[nH]1)C(C)C` [compound 177] gave an EC50 [1] of less than 1 nM.

For `CCNC(=O)N[C@@H](C(=O)N1CCC[C@H]1c1nc(-c2ccc3cc(-c4ccc(-c5cnc([C@@H]6CCCN6C(=O)[C@@H](NC(=O)OC)C(C)C)[nH]5)cc4)ccc3c2)c[nH]1)c1ccccc1` [compound 28], the EC50 [1] was less than 1 nM.

Molecule `COC(=O)N[C@H](C(=O)N1CCN(C(=O)OC)C[C@H]1c1ncc(-c2ccc(-c3ccc4cc(-c5cnc([C@@H]6CCCN6C(=O)[C@H](NC(=O)OC6CCOCC6)c6ccccc6)[nH]5)ccc4n3)cc2)[nH]1)C(C)C` [compound 472] has an EC50 (Huh-7, HCV 1b replicon) of less than 1 nM.

In the case of `COC(=O)N[C@H](C(=O)N1CCC[C@H]1c1nc2ccc(-c3ccc4cc(-c5cnc([C@@H]6CCCN6C(=O)[C@@H](NC(=O)OC)C6CCOCC6)[nH]5)ccc4c3)nc2[nH]1)C(C)C` [compound 201], the EC50 [1] is reported as less than 1 nM.

With `CNC(=O)N[C@@H](C(=O)N1CCC[C@H]1c1nc(-c2ccc3cc(-c4ccc(-c5cnc([C@@H]6CCCN6C(=O)[C@@H](NC(=O)OC)C(C)C)[nH]5)cc4)ccc3c2)c[nH]1)c1ccccc1` [14s] the EC50 (Huh-7, 72 h) was less than 1 nM.

For `COC(=O)N[C@H](C(=O)N1CCC[C@H]1c1ncc(-c2ccc(-c3ccc4cc(-c5c[nH]c([C@@H]6CCCN6C(=O)[C@H](NC(=O)OC(C)(C)C)c6ccccc6)n5)ccc4n3)cc2)[nH]1)C1CCOCC1` [compound 91], the EC50 [1] was less than 1 nM.

Molecule `COC(=O)N[C@H](C(=O)N1CCC[C@H]1c1ncc(-c2ccc3cc(-c4ccc5nc([C@@H]6CCCN6C(=O)[C@@H](NC(=O)OC)C6CCCC6)[nH]c5c4)ncc3c2)[nH]1)C1CCCC1` [compound 372] has an EC50 [2] of less than 1 nM.

For `COC(=O)N[C@H](C(=O)N1CCC[C@H]1c1ncc(-c2ccc3cc(-c4ccc5nc([C@@H]6CCCN6C(=O)[C@@H](NC(=O)OC)C6CC6)[nH]c5c4)ccc3c2)[nH]1)C1CC1` [compound 228], the EC50 [1] was less than 1 nM.

Molecule `COC(=O)N[C@H](C(=O)N1CCC[C@H]1c1nc(-c2ccc3nc(-c4ccc(-c5cnc([C@@H]6CCCN6C(=O)[C@@H](NC(=O)OC)C(C)C)[nH]5)cc4)cnc3c2)c[nH]1)C(C)C` [compound 11] has an EC50 [1] of less than 1 nM.

In the case of `COC(=O)N[C@H](C(=O)N1CCC[C@H]1c1nc(-c2ccc3c(c2)CCN(c2c(F)cc(-c4cnc([C@@H]5CCCN5C(=O)[C@@H](NC(=O)OC)C5CC5)[nH]4)cc2F)C3)c[nH]1)C1CC1` [compound 271], the EC50 [1] is reported as less than 1 nM.

Molecule `CCC(CC)[C@H](NC(=O)OC)C(=O)N1CCC[C@H]1c1ncc(-c2ccc3cc(-c4ccc5nc([C@@H]6COCCN6C(=O)[C@@H](NC(=O)OC)C(CC)CC)[nH]c5c4)ccc3c2)[nH]1` [compound 351] has an EC50 [2] of less than 1 nM.

`COC(=O)N[C@@H](C(=O)N1CCC[C@H]1c1nc(-c2ccc3nc(C45CCC(c6cnc([C@@H]7CCCN7C(=O)[C@H](NC(=O)OC)c7ccccc7)[nH]6)(CC4)CC5)ccc3c2)c[nH]1)c1ccccc1` [compound 263] gave an EC50 [1] of less than 1 nM.

For `COC(=O)N[C@H](C(=O)N1CCC[C@H]1c1ncc(-c2ccc3cc(-c4ccc(-c5cnc([C@@H]6CCCN6C(=O)[C@H](NC(=O)OC)c6ccccc6)[nH]5)cc4F)ncc3c2)[nH]1)C1CCOCC1` [compound 165], the EC50 [1] was less than 1 nM.

With `COC(=O)N[C@@H](CC(C)C)C(=O)N1CCC[C@H]1c1ncc(-c2ccc3nc(-c4ccc(-c5cnc([C@@H]6CCCN6C(=O)[C@H](NC(=O)OC)c6ccccc6)[nH]5)c(F)c4)ccc3c2)[nH]1` [compound 467] the EC50 (Huh-7, HCV 1b replicon) was less than 1 nM.
